Assay results reported in patent US4886793A, “Penem derivatives” (Farmitalia Carlo Erba, S.r.l., priority 1986, dated 1989).

How the values were obtained:
[1] = Pharmacokinetics in rat; conditions: in vivo
Text: (§1) In vivo data for (5R,6S)-6-[(1R)-hydroxy ethyl]-2-[4-(1-pyridinio)methylphenyl]oxymethylpenem-3-carboxylate (example 1, Compound 5,FCE 24386)

[2] = test system: Staphilococcus aureus Smith; assay: Experimental infection in mice, Staphilococcus aureus Smith; assay type: in vivo, Staphilococcus aureus Smith (infected mice); conditions: Mus musculus, intraperitoneal infection, 3 × LD50 challenge, treatments at 30, 90 and 360 minutes after infection
Method: (§2) ^1 Intraperitoneal infection in mice with a 3 × LD50
(§3) challenge; treatments at 30, 90 and 360 minutes after infection.

[3] = test system: Escherichia coli G II; assay: Experimental infection in mice, Escherichia coli G II; assay type: in vivo, Escherichia coli G II (infected mice); conditions: intraperitoneal infection, 3 × LD50 challenge, treatments at 30, 90 and 360 minutes after infection
Method: as §2, §3

[4] = Pharmacokinetics in mouse; conditions: in vivo
Text: as §1

Structure (SMILES): C[C@@H](O)[C@H]1C(=O)N2C(C(=O)[O-])=C(COc3ccc(C[n+]4ccccc4)cc3)S[C@H]12 [Compound 5, (5R,6S)-6-[(1R)-hydroxyethyl]-2-[4-(1-pyridinio)methylphenyl]oxymethylpenem-3-carboxylate]
- AUC [1]: 103000 ng·h/mL
- half-life ([1]; read-out: t 1/2β): 28 min
- ED50 [2]: < 0.032 mg/kg
- ED50 [3]: 1.55 mg/kg
- Fa ([4]; sc, Mouse, s.c., read-out: % Absorption s.c.): 100%
- AUC ([4]; mouse): 56000 ng·h/mL
- half-life ([4]; mouse, read-out: t 1/2β): 27 min
